Here are results for 5 molecules from patent US20180230160A1, “2-AMINO-7A-PHENYL-3,4,4A,5,7,7A-HEXAHYDROFURO[3,4-B]PYRIDINES AS BACE1 INHIBITORS” (H. Lundbeck A/S, priority 2015, published 2018).

One data set deals with P-gp (MDR1). Put plainly: MDCK-MDR1 assay (permeability, efflux ratio). The data set is classed as in vitro ADME. As to conditions: dog, Papp BA/Papp AB, 60-minute incubation. The method, then: The permeability of the test compounds was assessed in MDCK-MDR1 cells that were cultured to confluency (4-6 days) in a 96 transwell plate. Test compounds were diluted with the transport buffer (HBSS+1% BSA) to a concentration of 0.5 μM and applied to the apical or basolateral side of the cell monolayer. Permeation of the test compounds from A to B direction or B to A direction was determined in triplicate over a 60-minute incubation time at 37° C. and 5% CO2 with a relative humidity of 95%. Test compounds were quantified by LC-MS/MS analysis based on the peaks area ratios of analyte/IS in both the receiver and donor wells of the transwell plate. The apparent permeability coefficient Papp (cm/s) was calculated using the equation: […]
Where dCr/dt is the cumulative concentration of compound in the receiver chamber as a function of time (μM/s); Vr is the solution volume in the receiver chamber (0.05 mL on the apical side; 0.25 mL on the basolateral side); A is the surface area for the transport, i.e. 0.0804 cm^2 for the area of the monolayer; CO is the initial concentration in the donor chamber (μM).

For data set [1], the target named is T1, human BACE1 (Homo sapiens, UniProt P56817). The data set is described as follows: BACE1 binding assay (SPA-based radioligand binding). On the set-up: biotin (biotinylated form); made in house; host or cells: Freestyle HEK293 cells. As to conditions: pH 4.5, 10 nM radioligand, Ki=IC50/(1+L/Kd). Here is the method: The binding assay was performed as SPA-based assay using a biotinylated form of human BACE1 recombinantly expressed and subsequently purified from Freestyle HEK293 cells. The binding assay was run in a 50 mM sodium acetate buffer, pH 4.5 containing 50 mM NaCl and 0.03% Tween-20 in white clear bottom 384 plates (Corning #3653). 10 nM (final concentration) radioligand ([^3H]—N-((1S,2R)-1-benzyl-3-cyclopropylamino-2-hydroxy-propyl)-5-(methanesulfonyl-methyl-amino)-N—((R)-1-phenyl-ethyl)-isophthalamide) (TRQ11569 purchased from GE Healthcare) was mixed with test compound at a given concentration, 6 nM (final concentration) human BACE1 and 25 μg Streptavidin coated PVT core SPA beads (RPNQ0007, GE Healthcare Life Sciences) in a total volume of 40 μl. Several concentrations of each test compound were tested in the assay for […] determination. The plates were incubated for one hour at room temperature and counted in a Wallac Trilux counter. Total and non-specific binding were determined using buffer and 1 μM (final concentration) of the high affinity BACE1 reference inhibitor (S)-6-[3-chloro-5-(5-prop-1-ynyl-pyridin-3-yl)-thiophen-2-yl]-2-imino-3,6-dimethyl-tetrahydro-pyrimidin-4-one, respectively. For each test compound, a 1050 value (the concentration mediating 50% inhibition of the specific binding of the radioligand) was determined from concentration-response curve and used to calculate the Ki from the equation Ki=IC50/(1+L/Kd), where L and Kd are the final concentration of the radioligand used in the assay and the dissociation constant of the radioligand, respectively. The Kd of the radioligand was determined from saturation binding experiments.

Data set [2] has as its target T1, human BACE1. Put plainly: BACE1 efficacy assay (FRET-based, commercial BACE1 kit). The data set is classed as biochemical. Set-up: purchased Life Technologies P2985. As to conditions: 10 μM test compound. Here is the method:
The efficacy assay was performed as a FRET-based assay using a commercially available BACE1 kit (Life Technologies, P2985). 2 μl test compound at 10 μM (final concentration) and 15 μl BACE1 enzyme from the kit (final concentration 3 nM) were preincubated for 15 minutes at room temperature before addition of 15 μl of substrate from the kit (250 nM final concentration) and incubated for additional 90 minutes at room temperature. The assay plate was subsequently read in a Pherastar (Ex540/Em590). The enzyme activity observed in presence of test compound were normalized to the enzyme activity observed in presence of buffer and 10 μM (final concentration) of the high affinity BACE1 reference inhibitor (S)-6-[3-Chloro-5-(5-prop-1-ynyl-pyridin-3-yl)-thiophen-2-yl]-2-imino-3,6-dimethyl-tetrahydropyrimidin-4-one, respectively. The efficacy of the test compounds was evaluated at 10 μM (final concentration) and defined as the percent inhibition of the enzyme activity using the equation % inhibition=100%−normalized enzyme activity in percent.

SMILES strings stand for the structures.

T1 sequence (P56817 46-501): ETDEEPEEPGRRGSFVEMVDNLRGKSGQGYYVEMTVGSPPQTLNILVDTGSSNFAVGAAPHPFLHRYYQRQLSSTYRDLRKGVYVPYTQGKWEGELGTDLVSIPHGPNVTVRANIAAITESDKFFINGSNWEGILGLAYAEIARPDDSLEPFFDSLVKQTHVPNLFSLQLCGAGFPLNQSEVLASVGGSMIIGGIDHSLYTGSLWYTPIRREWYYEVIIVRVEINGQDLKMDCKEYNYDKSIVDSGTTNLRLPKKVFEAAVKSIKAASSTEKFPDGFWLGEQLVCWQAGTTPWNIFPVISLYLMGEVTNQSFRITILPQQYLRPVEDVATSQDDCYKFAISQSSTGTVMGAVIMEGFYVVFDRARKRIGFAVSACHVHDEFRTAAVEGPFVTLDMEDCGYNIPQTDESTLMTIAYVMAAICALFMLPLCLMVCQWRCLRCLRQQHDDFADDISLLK

The efflux ratio is the permeability from basolateral to apical divided by that in the opposite direction, in the common usage. Broadly, the Ki is the equilibrium dissociation constant of an inhibitor or competing ligand from its target. Higher therefore signals lower affinity. A word on the inhibition: it is the drop in the measured response relative to a control, in per cent. In the case of `COc1cnc(C(=O)Nc2cc(F)c(F)c([C@]34COC[C@H]3C[C@](F)(CF)C(N)=N4)c2)cn1` [Example 18, N-[3-[(3R,4aS,7aS)-2-amino-3-fluoro-3-(fluoromethyl)-4,4a,5,7-tetrahydrofuro[3,4-b]pyridin-7a-yl]-4,5-difluoro-phenyl]-5-methoxy-pyrazine-2-carboxamide], the efflux ratio at 60 min, 0.5 μM in the data set with P-gp (MDR1) worked out at 1.31. The Ki at human BACE1 [1] came out at 0.11 µM. In addition, at human BACE1 [2], the inhibition at 10 µM was 105%.
On to `NC1=N[C@@]2(c3cc(NC(=O)c4ccc(F)cn4)ccc3F)COC[C@H]2C[C@]1(F)CF` [Example 16, N-(3-((3R,4aS,7aS)-2-amino-3-fluoro-3-(fluoromethyl)-3,4,4a,5-tetrahydrofuro[3,4-b]pyridin-7a-yl)-4-fluorophenyl)-5-fluoropicolinamide], for which the efflux ratio at 60 min, 0.5 μM with P-gp (MDR1) was determined as 0.97. Also, the affinity on human BACE1 [1], expressed as Ki, was 0.088 µM. For the same molecule, the inhibition at 10 µM against human BACE1 [2] came to 110%.
For `COc1ccc(C(=O)Nc2ccc(F)c([C@]34COC[C@H]3C[C@](F)(CF)C(N)=N4)c2)nc1` [Example 15, N-(3-((3R,4aS,7aS)-2-amino-3-fluoro-3-(fluoromethyl)-3,4,4a,5-tetrahydrofuro[3,4-b]pyridin-7a-yl)-4-fluorophenyl)-5-methoxypicolinamide], in that order: 1.19, 0.065 µM and 111%.
Regarding `COc1ccc(C(=O)Nc2cc(F)c(F)c([C@]34COC[C@H]3C[C@](F)(CF)C(N)=N4)c2)nc1` [Example 17, N-[3-[(3R,4aS,7aS)-2-amino-3-fluoro-3-(fluoromethyl)-4,4a,5,7-tetrahydrofuro[3,4-b]pyridin-7a-yl]-4,5-difluoro-phenyl]-5-methoxy-pyridine-2-carboxamide], the efflux ratio at 60 min, 0.5 μM with P-gp (MDR1) came to 1.25. The molecule also showed a Ki on human BACE1 [1] of 0.099 µM. Moreover, the inhibition at 10 µM against human BACE1 [2] turned out to be 105%.
Take `NC1=N[C@@]2(c3cc(NC(=O)c4ccc(F)cn4)ccc3F)COC[C@H]2C[C@@]1(F)CF` [Example 20, N-(3-((3S,4aS,7aS)-2-amino-3-fluoro-3-(fluoromethyl)-3,4,4a,5-tetrahydrofuro[3,4-b]pyridin-7a-yl)-4-fluorophenyl)-5-fluoropicolinamide]: in the data set on P-gp (MDR1), the efflux ratio at 60 min, 0.5 μM came out at 0.71. This molecule showed a Ki on human BACE1 [1] of 0.14 µM. Further, the inhibition at 10 µM on human BACE1 [2] came out at 103%.
